Results reported in US20240180841A1, “ENTERIC TABLET CONTAINING DIMETHYL FUMARATE” (CURACLE CO., LTD., priority 2019, published 2024).
Where a name gives a salt, the structure may show the parent alone.

Assay: Weight loss rate at 60° C. for 2 weeks (sublimation)
Assay type: physicochemical
Details: drying and sublimation
Protocol: Dimethyl fumarate has a property of being lost by sublimation depending on the storage temperature. Accordingly, in order to confirm the degree of weight loss according to the coating drying temperature, the degree of weight loss was repeatedly evaluated for 2 weeks at a temperature of 60° C. for dimethyl fumarate and a mixture thereof. At this time, the mixture of dimethyl fumarate was a mixture in which dimethyl fumarate and other pharmaceutically acceptable additives were mixed.

Q: Which “Weight loss in words” value does the source give for `COC(=O)/C=C/C(=O)OC` [dimethyl fumarate, Dimethyl fumarate] here?
A: The value was “continued to lose weight”.
